Test results reported in patent US9568483B2, “Molecular subtyping, prognosis and treatment of prostate cancer” (CORNELL UNIVERSITY, priority 2011, dated 2017).
Entries after “also recorded” stand apart in the source; their conditions may differ.

Assays:
LNCaP-n-Myc cells = test: WST-1 viability assay, LNCaP cells stably transfected with MYCN; format: cell-based; details: compared to control LNCaP cells (LNCaP-EV); 72 hours; FIG. 4A
Description: (§1) Drug Treatment. PHA-739358 was obtained from Nerviano Medical Sciences (Milan, Italy) in powder form (MW 414.36). Prostate cell lines for this study were obtained from the American Type Culture Collection (Manassas, Va.). RWPE (20×10^3 per well), NCI-H660 (20×10^3), DU145 (5×10^3 per well), VCaP (20×10^3 per well) and LNCaP (1.5×10^4 per well) cells were seeded on 96-well-tissue culture plates. At 24 hours, cell lines were treated with vehicle (0.5% DMSO) or escalating doses of PHA-739358 (5 nM, 50 nM, 100 nM, 500 nM, 1 uM, 5 uM). At 48 hr, 72 h, 96 h, and 120 h, viability was assessed by performing WST-1 assay (Roche, Indianapolis, Ind.) reading absorbance at 450 nm according to the manufacturer's instructions. Xenografts were prepared by injection of 1 million NCI-H660 cells, VCaP cells, or LNCaP cells into NU/J mice (Jackson Laboratories, Bar Harbor, Me.). LTL-362 xenografts were established at BC Cancer Center Living Tumor Laboratory as previously described (TUNG et al., Prostate (2010)). 3×3×2 mm2 tissue fragments were subcutaneously engrafted into fourteen 6-8 week old NOD/SCID mice. All xenograft tumors were allowed to grow to an average tumor weight of 100 mm^3. […] Mice were sacrificed on day 17, and tumors were evaluated for weight, gross pathology, histology, and IHC. […]

NCI-H660 cells [1] = test: WST-1 viability assay, NCI-H660; format: cell-based, human; details: compared to two PCA cell lines (DU145, VCaP) and benign RWPE-1 cells; 72 hours; FIG. 4B
Description: as §1

LNCaP cells = test: Cell cycle FACS analysis, LNCaP; format: cell-based; details: 48 hrs treatment
Description: (§2) Cell Cycle Analysis. Cells were treated with PHA-739358 for 48 hrs. After treatment, cells were washed with cold PBS and fixed in 70% EtOH at −20° C. overnight. Cells were washed and suspended in 500 μl PBS containing 0.1% Triton X-100, 20 μg/ml Propidium Iodide (PI) and 200 μg/ml RNase A, incubated for 30 min at room temperature and subjected to FACS analysis using a LSR II Analyzer (BD Biosciences).

LNCaP-MYCN cells = test: Cell cycle FACS analysis, LNCaP-MYCN; format: cell-based; details: 48 hrs treatment
Description: as §2

NCI-H660 cells [2] = test: Cell cycle FACS analysis, NCI-H660; format: cell-based, human; details: 48 hrs treatment
Description: as §2

NCI-H660 xenografts = test: NCI-H660 xenograft study; format: in vivo, NU/J mice
Description: Drug Treatment. PHA-739358 was obtained from Nerviano Medical Sciences (Milan, Italy) in powder form (MW 414.36). Prostate cell lines for this study were obtained from the American Type Culture Collection (Manassas, Va.). RWPE (20×10^3 per well), NCI-H660 (20×10^3), DU145 (5×10^3 per well), VCaP (20×10^3 per well) and LNCaP (1.5×10^4 per well) cells were seeded on 96-well-tissue culture plates. At 24 hours, cell lines were treated with vehicle (0.5% DMSO) or escalating doses of PHA-739358 (5 nM, 50 nM, 100 nM, 500 nM, 1 uM, 5 uM). At 48 hr, 72 h, 96 h, and 120 h, viability was assessed by performing WST-1 assay (Roche, Indianapolis, Ind.) reading absorbance at 450 nm according to the manufacturer's instructions. Xenografts were prepared by injection of 1 million NCI-H660 cells, VCaP cells, or LNCaP cells into NU/J mice (Jackson Laboratories, Bar Harbor, Me.). LTL-362 xenografts were established at BC Cancer Center Living Tumor Laboratory as previously described (TUNG et al., Prostate (2010)). 3×3×2 […] tissue fragments were subcutaneously engrafted into fourteen 6-8 week old NOD/SCID mice. All xenograft tumors were allowed to grow to an average tumor […] of 100 mm^3. 20 LNCaP, 20 VCaP, 40 NCI-H660, 14 LTL-362 mice were randomized to treatment with PHA-739358 at 30 mg/kg intraperitoneal dosing on days 1-5 or vehicle. Body weight, tumor volume based on caliper measurements ([…]) and luciferase imaging were performed every 3 or 4 days after treatment. Mice were sacrificed on day 17, and tumors were evaluated for weight, gross pathology, histology, and IHC. Three tumors were processed during treatment (on day 4) to evaluate for phosphorylated histone 3 expression by IHC.
(§3) Immunohistochemistry (IHC). […] IHC was quantified on scale 0-3 and overexpression was defined as any staining intensity seen of target cells above background (similar methodology as was used in PARK et al., Neoplasia, 12:590-8 (2010)).
(§4) Xenografts. […] Mice were sacrificed on day 17, and tumors were evaluated for weight, gross pathology, histology, and IHC. […]

LTL-352 xenograft = LTL-352 xenograft study; format: in vivo, NOD/SCID mice; details: LTL-352 xenografts; 30 mg/kg IP BID, 5 days; P<0.001
Description: as §1, with “(2010)).” for “(2010)). 3×3×2 mm2 tissue fragments were subcutaneously engrafted into fourteen 6-8 week old NOD/SCID mice. All xenograft tumors were allowed to grow to an average tumor weight of 100 mm^3.”
(§5) Xenografts. […] Mice were sacrificed on day 17, and tumors were evaluated for weight, gross pathology, histology, and IHC. […] Analysis was performed using LivingImage software (Xenogen) by measurement of the average photon flux (measured in photons/s/cm2/steradian) within a region of interest.

LNCaP xenografts = test: LNCaP xenograft study; format: in vivo, NU/J mice
Description: as §1, with “Me.).” for “Me.). LTL-362 xenografts were established at BC Cancer Center Living Tumor Laboratory as previously described (TUNG et al., Prostate (2010)). 3×3×2 mm2 tissue fragments were subcutaneously engrafted into fourteen 6-8 week old NOD/SCID mice. All xenograft tumors were allowed to grow to an average tumor weight of 100 mm^3.”
as §3, §4

VCaP xenografts = test: VCaP xenograft study; format: in vivo, NU/J mice; details: 30 mg/kg intraperitoneal, days 1-5
Description: as §1, with “(2010)).” for “(2010)). 3×3×2 mm2 tissue fragments were subcutaneously engrafted into fourteen 6-8 week old NOD/SCID mice. All xenograft tumors were allowed to grow to an average tumor weight of 100 mm^3.”
as §5

[3] = mouse, in vivo, ip, 30 mg/kg
Description: as §1, with “(2010)).” for “(2010)). 3×3×2 mm2 tissue fragments were subcutaneously engrafted into fourteen 6-8 week old NOD/SCID mice. All xenograft tumors were allowed to grow to an average tumor weight of 100 mm^3.”
as §5

**Q.** Which “in vitro sensitivity (viability)” value (LNCaP-n-Myc cells) does the source give for `CO[C@@H](C(=O)N1Cc2n[nH]c(NC(=O)c3ccc(N4CCN(C)CC4)cc3)c2C1)c1ccccc1` [PHA-739358] here?
**A.** enhanced in vitro sensitivity

**Q.** What about the “sensitivity (viability)” value (NCI-H660 cells [1]) of the same compound?
**A.** enhanced sensitivity

**Q.** What about the Polyploidy (LNCaP cells) of the same compound?
**A.** induced

**Q.** What about the G2/M arrest (LNCaP cells; FIG. 5) of the same compound?
**A.** dose dependent G2/M arrest

**Q.** And the Polyploidy (LNCaP-MYCN cells)?
**A.** induced

**Q.** And the G2/M arrest (LNCaP-MYCN cells; FIG. 5)?
**A.** dose dependent G2/M arrest

**Q.** And the Polyploidy (NCI-H660 cells [2])?
**A.** induced

**Q.** What about the G2/M arrest (NCI-H660 cells [2]; FIG. 5) of the same compound?
**A.** no significant G2/M arrest

**Q.** What about the average tumor shrinkage (NCI-H660 xenografts; NCI-H660 xenografts, 30 mg/kg IP BID, 5 days, P<0.001) of the same compound?
**A.** 50-87%

**Q.** What about the “SYP (synaptophysin) expression (IHC)” value (NCI-H660 xenografts; treated NCI-H660 xenografts, FIG. 4F) of the same compound?
**A.** negative; also recorded: completely suppressed

**Q.** And the “Phosphorylated histone 3 expression (IHC)” value (NCI-H660 xenografts; treated NCI-H660 xenografts, day 4 of treatment)?
**A.** significantly inhibited

**Q.** And the average tumor shrinkage (LTL-352 xenograft)?
**A.** 50-87%

**Q.** And the “effect on tumor size” value (LNCaP xenografts; LNCaP xenografts, 30 mg/kg IP BID, 5 days)?
**A.** no effect

**Q.** And the “Phosphorylated histone 3 expression (IHC)” value (LNCaP xenografts; treated LNCaP xenografts, day 4 of treatment)?
**A.** not in the LNCaP xenografts

**Q.** What about the “effect on tumor size” value (VCaP xenografts) of the same compound?
**A.** cytostatic effect

**Q.** And the “toxicity as determined by body weight” value [3]?
**A.** without significant toxicity
